Entries after “also recorded” stand apart in the source; their conditions may differ.
Columns and labels:
Assay type in all cases: in vivo
[1] = test system: C57 mice with MCD-induced NASH; experiment: Nonalcoholic steatohepatitis induced by methionine choline deficiency (MCD) feed
Experimental: 150 SPF male mice C57 aged 6-8 weeks were raised in the SPF experimental animal center of Tongji Medical College of Huazhong University of Science and Technology. They were provided with standard diet and drinking water. The room temperature was controlled at 23±2° C. After 7 days of adaptive feeding, they were given drugs by intragastric administration. […] The control groups were administered with normal diet. The model group and each administration group were fed with methionine choline deficiency (MCD) feed. Each group was administrated by gavage. The control group and the model group were given equal amount of thrice steamed water once a day for 8 weeks. The mice were weighed every three days. The hair color, state, food, water and defecation of each group were observed, and the death of each group was recorded. At the end of the 2nd week, 4th week and 6th week, three mice were randomly selected and killed to observe the modeling state. At the end of the 8th week, after the last administration, all mice were provided with no food but water for 12 hours, and all indexes were measured.

[2] = test system: C57BL/6J mice with alcoholic fatty liver; experiment: Alcoholic fatty liver (5% alcoholic Lieber-DeCarli liquid diet)
Experimental: C57BL/6J mice aged 7-8 weeks were raised in the SPF experimental animal center of Tongji Medical College of Huazhong University of Science and Technology. They were provided with standard diet and drinking water. The room temperature was controlled at 23±2° C. After 7 days of adaptive feeding, they were given drugs by intragastric administration. […] The mice were fed with a 5% alcoholic Lieber-DeCarli liquid diet and developed alcoholic fatty liver disease. The mice were administered with alcohol and drugs. Spherically, drinking water were administered to the control group and the model group, and different doses were administered to the dose groups.

[3] = test system: C57 mice with D-GalN/LPS acute liver failure; experiment: Acute liver failure induced by D-GalN + LPS
Experimental: 60 SPF male C57 mice were purchased and raised in the SPF experimental animal center of Tongji Medical College of Huazhong University of Science and Technology. The mice were provided with standard diet and drinking water. The room temperature was controlled at 23±2° C. After 7 days of adaptive feeding, the mice were administered by intragastric administration. The mice were divided into a control group (administered with distilled water), a model group (administered with distilled water), a high dose group (KD-400 group, 400 mg/kg KD), a medium dose group (KD-200 group, 200 mg/kg KD) and a low dose group (KD-100 group, 100 mg/kg KD), ten mice each group. The mice were weighed the next day, and were continuously administered with above drugs respectively for 10 days. One hour after the last gavage, the mice were injected intraperitoneally (the control group was injected with the same amount of normal saline). The agent for the intraperitoneal injection was galactosamine (D-GalN, 500 mg/kg)+lipopolysaccharide (LPS, Eschericia coli 0111: B4, 5 ug/kg), all purchased from Sigma-Aldrich.

O=C1C[C@@H](O[C@@H]2O[C@H](CO)[C@@H](O)[C@H](O)[C@H]2O)CO1 [KD]
lipid droplet area of sections (Image J), compared with the positive group ([1]; 8 w, high-dose KD group): even better than that of the positive group
liver fat accumulation (oil red O staining) ([1]; 40, 20 and 10 mg/kg KD): Fat accumulation in liver was significantly reduced
liver cell apoptosis / Cleaved Caspase3 (CC3) protein (immunohistochemical staining) ([1]; KD group at different doses): could reduce the liver cell apoptosis to varying degrees, thus reducing the expression of liver CC3 protein
expression of Bcl-2, Bax and Casp3 genes in liver (RT-qPCR) ([1]; KD high-dose group): significantly increased the expression of anti-apoptotic gene Bcl-2, decreased the expression of pro-apoptotic gene Bax, reduced the expression of apoptotic marker gene Casp3
fiber formation (Masson staining, fiber area) ([1]; all the KD groups, 8 weeks): the liver fiber content decreased, and the effect of KD was even better than that of the positive drug group; also recorded: had inhibitory effect on the fiber formation
liver coefficient (liver index) ([1]; different doses of KD): could reduce liver fat and normalize the liver index; also recorded: reduce liver coefficient
ALT and AST levels in the serum ([1]; different doses of KD, 8 weeks): the AST and ALT levels were decreased in each dose group of KD; also recorded: could significantly reduce the ALT and AST levels in the serum
expression of fibrotic marker protein α-SMA (Western blot, immunohistochemistry) ([1]; each KD dose group): could reduce the expression of α-SMA; also recorded: could be reduced in each KD dose group
lipid content ([1]; each KD group): slightly increased
serum HA and LN (ELISA) ([1]; each dose group of KD): could significantly reduce the content of HA and LN; also recorded: could reduce the content of HA and LN in varying degrees
expression of Bcl-xl and BAX proteins in liver (Western Blot) ([1]; mouse, in vivo): the expression of anti-apoptotic protein Bcl-xl was increased, and the proapoptotic protein BAX was inhibited
expression of MMP-13 in the liver (qPCR) ([1]; mouse, in vivo): increase the expression of matrix metalloproteinase-13 (MMP-13)
expression of pro-apoptotic and anti-apoptotic genes and proteins ([1]; mouse, in vivo): could also reduce the expression of pro-apoptotic genes and proteins, and increase the expression of anti-apoptotic genes
expression of α-SMA, Col I, TIMP-1 and TGF-β in the liver (qPCR) ([1]; mouse, in vivo): could effectively inhibit the expression
inflammatory infiltration of liver (HE staining) ([1]; mouse, in vivo): could inhibit the inflammatory infiltration of liver
oxidative stress (SOD, MDA in liver) ([1]; mouse, in vivo): SOD content in the liver increased and oxidative product MDA decreased; also recorded: could reverse the oxidative stress injuries
shear wave velocity / liver hardness (SWE) ([1]; mouse, in vivo): the liver hardness of the KD group decreased; also recorded: could significantly reduce the shear wave velocity
therapeutic effect on MCD-induced NASH (overall, vs silymarin and Fuzheng Huayu capsule) ([1]; mouse, in vivo): dose-dependent, and its effect was similar to that of the drugs silymarin and Fuzheng Huayu capsule, and was better than that of the drugs in some indexes; also recorded: has a good therapeutic effect on MCD-induced NASH
fat vacuoles / histopathological damage of liver (H&E staining) ([2]; 40 and 20 mg/kg KD): could reduce histopathological damage of liver and reduce fat vacuoles in liver of mice; also recorded: fat vacuoles were reduced
SOD activity in the liver / oxidative stress injuries ([2]; AFL mice): increased the activity of superoxide dismutase (SOD) in the liver of AFL and ALF mice; also recorded: could reverse the oxidative stress injuries
serum ALT ([2]; AFL mice): decreased the serum alanine aminotransferase (ALT) of AFL and ALF mice
secretion of TNF-α and IL-6 ([2]; high and medium dose groups): inhibited the secretion of TNF and IL6 in AFL and ALF; also recorded: reduced the secretion of the inflammatory cytokine TNF-α and IL-6
therapeutic effect on alcoholic fatty liver (overall) ([2]; mouse, in vivo): has a good therapeutic effect on alcoholic fatty liver and alcoholic liver fibrosis
bleeding and swelling of the liver (appearance) ([3]; KD 100-400 mg/kg, 10 days, gavage, silymarin dose not given): can significantly improve the bleeding and swelling of the liver
inflammatory cytokines TNF-α, IL-12p70, IFN-γ (flow cytometry kit) ([3]; high, medium and low dose groups): had significant anti-inflammatory effect
liver histopathological damage (H&E staining) ([3]; high, middle and low KD dose groups): can reduce liver histopathological damage
apoptotic marker proteins PARP and C-C3 (Western blot) ([3]; high-dose group): could reduce abnormal apoptosis of hepatocytes; also recorded: could down regulate the apoptotic protein
apoptosis of liver cells (Tunel fluorescence staining) ([3]; mouse, in vivo): could inhibit abnormal apoptosis of the liver cells
development of acute liver failure (overall) ([3]; mouse, in vivo): can effectively prevent the development of acute liver failure and reduce liver damage
endoplasmic reticulum stress, expansion and vesiculation ([3]; mouse, in vivo): could down-regulate the process
liver weight/body weight ([3]; mouse, in vivo): could improve the weight gain of liver bleeding
mitochondrial structure of the liver (transmission electron microscopy) ([3]; mouse, in vivo): the mitochondrial structure of the liver of the mice was protected
oxidative stress injuries (MDA, SOD) ([3]; mouse, in vivo): protect the mice from the oxidative stress injuries

Source: patent US20200171065A1, “METHOD FOR TREATING LIVER DISEASE WITH KINSENOSIDE” (HUAZHONG UNIVERSITY OF SCIENCE AND TECHNOLOGY, priority 2017, published 2020)
